Test results: patent US20120157439A1, “RAF INHIBITOR COMPOUNDS AND METHODS OF USE THEREOF” (GENENTECH, INC., priority 2009, published 2012)
pIC50: −log10 of the molar value. Like-named read-outs stand apart in the source and are kept apart here.

Biological target: T1, V600E full-length B-Raf (Homo sapiens, UniProt P15056, V600E)
T1 construct: 1 μM FSBA-MEK and 20 nM V600E full-length B-Raf; made in house; host or cells: sf9 insect cells (baculovirus)
Experiment: B-Raf IC50 Assay (B-RAF V600E inhibition assay, Example A)
Type: biochemical
Description: Determining the activity of Raf in the sample is possible by a number of direct and indirect detection methods (US 2004/0082014). Activity of human recombinant B-Raf protein may be assessed in vitro by assay of the incorporation of radio labeled phosphate to recombinant MAP kinase (MEK), a known physiologic substrate of B-Raf, according to US 2004/0127496 and WO 03/022840. The activity/inhibition of V600E full-length B-Raf was estimated by measuring the incorporation of radio labeled phosphate from [γ-33P]ATP into FSBA-modified wild-type MEK (see Example A).
Activity of human recombinant B-Raf protein may be assessed in vitro by assay of the incorporation of radio labeled phosphate to recombinant MAP kinase (MEK), a known physiologic substrate of B-Raf, according to U.S. Patent Appl. Publication No. 2004/0127496 and WO 03/022840. Catalytically active human recombinant B-Raf protein is obtained by purification from sf9 insect cells infected with a human B-Raf recombinant baculovirus expression vector.
The activity/inhibition of V600E full-length B-Raf was estimated by measuring the incorporation of radio labeled phosphate from [γ-33P]ATP into FSBA-modified wild-type MEK. The […] assay mixtures contained 25 mM Na Pipes, pH 7.2, 100 mM KCl, 10 mM MgCl2, 5 mM β-glycerophosphate, 100 μM Na Vanadate, 4 μM ATP, 500 nCi [γ-33P]ATP, 1 μM FSBA-MEK and 20 nM V600E full-length B-Raf. Incubations were carried out at 22° C. in a Costar 3365 plate (Corning). Prior to the assay, the B-Raf and FSBA-MEK were preincubated together in assay buffer at 1.5× (20 μL of 30 nM and 1.5 μM, respectively) for 15 minutes, and the assay was initiated by the addition of 10 μL of […]. Following the 60-minute incubation, the assay mixtures were quenched by the addition of 100 μL of 25% TCA, the plate was mixed on a rotary shaker for 1 minute, and the product was captured on a Perkin-Elmer GF/B filter plate using a Tomtec Mach III Harvester. After sealing the bottom of the plate, 35 μL of Bio-Safe II (Research Products International) scintillation cocktail were added to each well and the plate was top-sealed and counted in a Topcount NXT (Packard).

[1] = B-Raf V600E assay of Example A: less than about 1 μM, read-out: IC50
[2] = incorporation of radio labeled phosphate from [γ-33P]ATP into FSBA-modified wild-type MEK, 4 μM ATP, 20 nM V600E full-length B-Raf, 60-minute incubation, 22° C., read-out: BRAF V600E IC50
[3] = B-Raf V600E assay of Example A: less than 100 nM, read-out: IC50

T1 sequence (P15056 whole entry V600E): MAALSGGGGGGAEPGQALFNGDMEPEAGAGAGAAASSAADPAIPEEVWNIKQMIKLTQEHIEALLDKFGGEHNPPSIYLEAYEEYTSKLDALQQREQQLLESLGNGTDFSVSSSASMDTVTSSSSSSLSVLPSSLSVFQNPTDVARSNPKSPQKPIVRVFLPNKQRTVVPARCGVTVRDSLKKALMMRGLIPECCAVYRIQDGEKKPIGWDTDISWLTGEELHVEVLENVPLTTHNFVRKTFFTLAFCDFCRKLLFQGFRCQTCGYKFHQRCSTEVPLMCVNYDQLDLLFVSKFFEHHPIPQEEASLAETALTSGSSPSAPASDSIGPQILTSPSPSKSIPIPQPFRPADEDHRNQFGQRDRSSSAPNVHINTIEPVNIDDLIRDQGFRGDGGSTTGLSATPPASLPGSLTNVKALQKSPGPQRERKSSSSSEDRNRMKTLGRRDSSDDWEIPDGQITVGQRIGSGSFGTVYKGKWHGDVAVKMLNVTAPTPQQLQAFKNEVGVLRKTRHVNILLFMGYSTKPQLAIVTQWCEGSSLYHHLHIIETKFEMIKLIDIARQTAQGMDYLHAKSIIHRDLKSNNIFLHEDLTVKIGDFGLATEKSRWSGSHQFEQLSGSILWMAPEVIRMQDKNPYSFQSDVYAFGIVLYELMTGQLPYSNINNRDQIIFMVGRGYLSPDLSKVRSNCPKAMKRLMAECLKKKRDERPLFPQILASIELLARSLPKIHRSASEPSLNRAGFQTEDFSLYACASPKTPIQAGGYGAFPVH

Row | pIC50 [1] | pIC50 [2] | pIC50 [3] | Structure (SMILES)
1 | > 6.00 | 6.66 |  | CCCC(C)Nc1ncnc2c(C(=O)Nc3c(F)ccc(NS(=O)(=O)CCC)c3F)csc12 (stereo not drawn) [Example 51, 4-(1-Methyl-butylamino)-thieno[3,2-d] pyrimidine-7-carboxylic acid [2,6-difluoro-3-(propane-1-sulfonylamino)-phenyl]-amide]
2 | > 6.00 | 6.38 |  | CCCS(=O)(=O)Nc1ccc(F)c(NC(=O)c2csc3c(NC4CCCC4)ncnc23)c1F [Example 54, 4-Cyclopentyl-amino-thieno [3,2-d] pyrimidine-7-carboxylic acid [2,6-difluoro-3-(propane-1-sulfonylamino)-phenyl]-amide]
3 | > 6.00 | 8.72 | > 7.00 | CCCS(=O)(=O)Nc1ccc(F)c(NC(=O)c2csc3c(NC4CC4)ncnc23)c1Cl [Example 43, 4-Cyclopropylamino-thieno[3,2-d]pyrimidine-7-carboxylic acid [2-chloro-6-fluoro-3-(propane-1-sulfonylamino)-phenyl]-amide]
4 | > 6.00 | 6.98 |  | CCCS(=O)(=O)Nc1ccc(F)c(NC(=O)c2snc3c(NCC)ncnc23)c1F [Example 35, 7-Ethylamino-isothiazolo[4,3-d]pyrimidine-3-carboxylic acid [2,6-difluoro-3-(propane-1-sulfonylamino)-phenyl]-amide]
5 | > 6.00 | 8.29 | > 7.00 | CCCS(=O)(=O)Nc1cc(F)c(F)c(NC(=O)c2csc3c(NN4CCOCC4)ncnc23)c1F [Example 95, 4-(Morpholin-4-ylamino)-thieno[3,2-d] pyrimidine-7-carboxylic acid [2,3,6-trifluoro-5-(propane-1-sulfonyl-amino)-phenyl]-amide]
6 | > 6.00 | 7.12 | > 7.00 | CCCS(=O)(=O)Nc1ccc(F)c(NC(=O)c2csc3c(NCC4CC4)ncnc23)c1F [Example 56, 4-(Cyclopropyl-methylamino)-thieno[3,2-d] pyrimidine-7-carboxylic acid [2,6-difluoro-3-(propane-1-sulfonylamino)-phenyl]-amide]
7 | > 6.00 | 8.57 | > 7.00 | O=C(Nc1c(Cl)ccc(NS(=O)(=O)CCCF)c1Cl)c1csc2cncnc12 [Example 110, Thieno[3,2-d]pyrimidine-7-carboxylic acid [2,6-dichloro-3-(3-fluoro-propane-1-sulfonyl-amino)-phenyl]-amide]
8 | > 6.00 | 6.95 |  | CCCS(=O)(=O)Nc1ccc(F)c(NC(=O)c2c[nH]c3c(NOC)ncnc23)c1F [Example 105, 4-Methoxyamino-5H-pyrrolo[2-d]pyrimidine-7-carboxylic acid [2,6-difluoro-3-(propane-1-sulfonylamino)-phenyl]-amide]
9 | > 6.00 | 7.69 | > 7.00 | CCCS(=O)(=O)Nc1ccc(F)c(NC(=O)c2c[nH]c3c(N)ncnc23)c1F [Example 102, 4-Amino-5H-pyrrolo[3,2-d]pyrimidine-7-carboxylic acid [2,6-difluoro-3-(propane-1-sulfonylamino)-phenyl]-amide]
10 | > 6.00 | 7.68 | > 7.00 | CCCS(=O)(=O)Nc1ccc(Cl)c(NC(=O)c2csc3cncnc23)c1F [Example 111, Thieno[3,2-d]pyrimidine-7-carboxylic acid [6-chloro-2-fluoro-3-(propane-1-sulfonylamino)-phenyl]-amide]
11 | > 6.00 | 8.54 | > 7.00 | CCCS(=O)(=O)Nc1ccc(F)c(NC(=O)c2csc3c(N)ncnc23)c1F [Example 6, 4-Amino-thieno[3,2-d] pyrimidine-7-carboxylic acid [2,6-difluoro-3-(propane-1-sulfonylamino)-phenyl]-amide]
12 | > 6.00 | 7.06 | > 7.00 | CN(C)S(=O)(=O)Nc1ccc(F)c(NC(=O)c2csc3c(N)ncnc23)c1F [Example 29, 4-Amino-N-(3-(N,N-dimethylsulfamoylamino)-2,6-difluorophenyl)thieno[3,2-d]pyrimidine-7-carboxamide]
13 | > 6.00 | 6.04 |  | CCCS(=O)(=O)Nc1ccc(F)c(NC(=O)c2csc3c(NCC(C)(C)C)ncnc23)c1F [Example 58, 4-(2,2-Dimethyl-propylamino)-thieno[3,2-d] pyrimidine-7-carboxylic acid [2,6-difluoro-3-(propane-1-sulfonylamino)-phenyl]-amide]
14 | > 6.00 | 6.80 |  | CCCS(=O)(=O)Nc1ccc(Cl)c(NC(=O)c2csc3c(NC4CCNCC4)ncnc23)c1Cl [Example 79, 4-(Piperidin-4-ylamino)-thieno[3,2-d] pyrimidine-7-carboxylic acid [2,6-dichloro-3-(propane-1-sulfonyl-amino)-phenyl]amide]
15 | > 6.00 | 8.52 | > 7.00 | CCCS(=O)(=O)Nc1ccc(F)c(NC(=O)c2sc(C)c3c(N)ncnc23)c1F [Example 99, 4-Amino-5-methyl-thieno[3,4-a]pyrimidine-7-carboxylic acid [2,6-difluoro-3-(propane-1-sulfonylamino)-phenyl]-amide]
16 | > 6.00 | 9.30 | > 7.00 | CCCS(=O)(=O)Nc1ccc(Cl)c(NC(=O)c2csc3c(NCCF)ncnc23)c1Cl [Example 74, 4-(2-Fluoro-ethylamino)-thieno[3,2-d] pyrimidine-7-carboxylic acid [2,6-dichloro-3-(propane-1-sulfonyl-amino)-phenyl]amide]
17 |  | < 6.00 |  | CCCS(=O)(=O)Nc1ccc(Cl)c(NC(=O)c2csc3c(NC4CN(C)C4)ncnc23)c1Cl [Example 75, 4-(1-Methyl-azetidin-3-ylamino)-thieno[3,2-d] pyrimidine-7-carboxylic acid [2,6-dichloro-3-(propane-1-sulfonyl-amino)-phenyl]amide]
18 | > 6.00 | 10.00 | > 7.00 | Nc1ncnc2c(C(=O)Nc3c(Cl)ccc(NS(=O)(=O)CCCF)c3F)csc12 [Example 13, 4-Amino-thieno[3,2-d]pyrimidine-7-carboxylic acid[6-chloro-2-fluoro-3-(3-fluoro-propane-1-sulfonylamino)-phenyl]-amide]
19 | > 6.00 | 6.15 |  | CCCS(=O)(=O)Nc1cc(F)c(F)c(NC(=O)c2csc3c(NC4CCOCC4)ncnc23)c1F [Example 94, 4-(Tetrahydro-pyran-4-ylamino)-thieno[3,2-d] pyrimidine-7-carboxylic acid [2,3,6-trifluoro-5-(propane-1-sulfonyl-amino)-phenyl]-amide]
20 | > 6.00 | 8.13 | > 7.00 | Nc1ncnc2c(C(=O)Nc3c(F)ccc(NS(=O)(=O)CC4CC4)c3F)csc12 [Example 18, 4-Amino-thieno[3,2-d] pyrimidine-7-carboxylic acid (3-cyclopropyl-methanesulfonyl-amino-2,6-di-fluoro-phenyl)-amide]
21 | > 6.00 | 9.42 | > 7.00 | CCCS(=O)(=O)Nc1cccc(NC(=O)c2nsc3c(N)ncnc23)c1C#N [Example 33, 7-Amino-isothiazolo[4,5-d]pyrimidine-3-carboxylic acid [2-cyano-3-(propane-1-sulfonylamino)-phenyl]-amide]
